Experiment in all cases: DTP human tumour cell line panel, 48 h
Assay [1] has as its system OVCAR-4 ovarian.
The test system of assay [2] is A498 renal.
Assay [3] has as its system CCRF-CEM leukemia.
For assay [4], the system named is SF-295 CNS.
The test system of assay [5] is HOP-92 NSCLC.
Assay [6] has as its system HCT-116 colon.
Assay [7] has as its system CAKI-1 renal.
In assay [8] the test system is TK-10 renal.
Assay [9] deals with UACC-62 melanoma.
Assay [10] relates to K-562 leukemia.

Molecules are shown by their SMILES.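 Values below derive from 48-hour exposures of cells grown in 96-well plates, with endpoints linearly interpolated between the two concentrations bracketing the appropriate inhibition level. GI50 marks 50% less growth. TGI: concentration producing complete growth inhibition.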

For `COC1=CC23CCCN2CCc2cc4c(cc2C3C1O)OCO4` (stereo not given), the TGI in assay [1], in [2], in assay [3], in assay [4], in assay [5] and in assay [6] was above 100 µM each time. Also, the TGI in assay [7] is 92 µM; in [8], above 100 µM; in assay [9], above 100 µM.
Consider `CC1=C(C(=O)Nc2cc(=O)n(C)c(=O)n2C)C(c2ccc([N+](=O)[O-])cc2)C(C(=O)Nc2cc(=O)n(C)c(=O)n2C)=C(C)N1`, for which the TGI in assay [1] is above 100 µM; in [2] it was above 100 µM; in [3], above 100 µM; in assay [4] it was above 100 µM; in assay [10], above 100 µM; in assay [5] it was 85.7 µM. For the same molecule, the TGI in [6], in [8] and in assay [9] was above 100 µM throughout.
Take `CC(=O)C1C(=O)NC(=O)C1=O` (stereo not given): the TGI in assay [1], in assay [2], in assay [4], in [10], in [5] and in assay [6] was above 100 µM each time. Moreover, the TGI in assay [7], in [8] and in [9] was above 100 µM throughout.
In the case of `CN(C)c1ncc(-c2ccc(C(F)(F)F)cc2)c(NC2CCCCCC2)n1`, the GI50 is 12.9 µM in assay [1]; 12.4 µM in assay [2]; 16.4 µM in [3]; 17.5 µM in assay [4]; 14.6 µM in assay [10]; 10.4 µM in assay [6]. Moreover, the GI50 is 23.1 µM in assay [7], 40.6 µM in assay [8] and 14.7 µM in assay [9]. The TGI worked out at 56.6 µM in assay [1]; 29.4 µM in assay [2]; 35.8 µM in [3]; 37.4 µM in assay [4]; 41.1 µM in assay [10]; 53.4 µM in [6]. Also, the TGI is above 100 µM in assay [7], above 100 µM in [8] and 35.7 µM in [9].
On to `CC(C)C1CC2C(=O)N(c3ccccc3)C(=O)C2c2[nH]c3ccccc3c21` (stereo not given), for which the TGI in [1] is 5.63 µM; in [2], above 100 µM; in assay [3] it was 54.3 µM; in assay [4], 65.5 µM; in assay [10], 18.7 µM; in assay [6], 14.8 µM. The figures for the TGI in [7], in assay [8] and in [9] were above 100 µM, 97.4 µM and above 100 µM, respectively.
`O=C1c2ccccc2NC1(c1ccccc1)c1c(-c2ccccc2)[nH]c2ccccc12` (stereo not given): the concentration for total growth inhibition (TGI) in [1], in assay [2], in assay [3], in assay [4], in assay [10] and in [5] was above 100 µM in each case. The TGI in assay [6], in [7] and in assay [9] was above 100 µM each time.
As to `CC1=C(C(=O)NCc2ccccc2)C(c2ccc([N+](=O)[O-])cc2)C(C(=O)NCc2ccccc2)=C(C)N1`, the TGI in [1] is 47.9 µM; in assay [2], above 100 µM; in assay [4], above 100 µM; in assay [10], above 100 µM; in assay [5] it was 73.6 µM; in [6], 60.6 µM. Also, the values for the concentration for total growth inhibition (TGI) in assay [7], in assay [8] and in assay [9] were above 100 µM, above 100 µM and 64.6 µM, respectively.
As for `Nc1nc2cc3ccc(C4CC(O)C(CO)O4)cc3cc2c(=O)[nH]1` (stereo not given), the GI50 was above 100 µM in assay [1]; 26.8 µM in assay [2]; 41.4 µM in assay [3]; above 100 µM in assay [4]; above 100 µM in assay [10]; above 100 µM in assay [5]. The GI50 in [6], in [7] and in assay [9] was above 100 µM in each case. Further, the TGI in assay [1], in [2], in assay [3], in assay [4], in [10] and in assay [5] was above 100 µM throughout. Also, the TGI in [6], in [7] and in assay [9] was above 100 µM in each case.
For the molecule `CCN(CC)c1ccc2c(c1)Oc1nc(N)c(C#N)c(N)c1C2Sc1ccc(OC)cc1` (stereo not given), the GI50 was 1.57 µM in [1]; 2.29 µM in assay [2]; 1.75 µM in assay [3]; 1.93 µM in [4]; 2.61 µM in [10]; 1.86 µM in assay [5]. Also, the GI50 was 1.65 µM in assay [6], 2.8 µM in [8] and 1.72 µM in assay [9]. Also, the TGI in [1] was determined as 3.02 µM; in assay [2], 4.14 µM; in assay [3], 5.47 µM; in assay [4], 3.6 µM; in [10], 8.07 µM; in assay [5], 3.37 µM. Also, the TGI was found to be 3.12 µM in assay [6], 4.33 µM in assay [8] and 3.34 µM in assay [9].
As for `CN1C(c2ccccc2)CS(=O)(=O)CS1(=O)=O` (stereo not given), the TGI in assay [1], in assay [2], in [4], in assay [6], in assay [7] and in assay [8] was above 100 µM in each case. For the same molecule, the TGI in assay [9] is above 100 µM.
For the molecule `Cc1nccc2c3ccc(OCc4cn(-c5ccc(Cl)cc5)nn4)cc3n(CCCc3ccccc3)c12`, the GI50 in assay [1] was 4.34 µM; in [2], above 33.3 µM; in [3], 1.75 µM; in [4], 4.81 µM; in assay [10] it was 2.96 µM; in assay [5] it was 4.98 µM. Moreover, the results for the GI50 in assay [6], in assay [8] and in assay [9] were 2.14 µM, 2 µM and 1.89 µM, respectively. For the same molecule, the TGI in assay [1] was 10.4 µM; in assay [2], above 33.3 µM; in assay [3], above 33.3 µM; in assay [4], 12.7 µM; in assay [10], above 33.3 µM; in [5], 21.3 µM. The TGI in [6] was above 33.3 µM; in [8] it was above 33.3 µM; in [9], 7.43 µM.
As to `CCN(CC)CCCC(C)Nc1nc(C)cc(Nc2ccc3nc(C)cc(N)c3c2)n1` (stereo not given), the GI50 in assay [1] was 20.9 µM; in assay [2] it was above 100 µM; in [3], 15.3 µM; in assay [4] it was 0.0287 µM; in assay [10] it was 27.1 µM; in assay [6], 32.4 µM. The GI50 is above 100 µM in assay [8] and 39.2 µM in assay [9]. In addition, the TGI was 60.8 µM in assay [1]; above 100 µM in assay [2]; 41.6 µM in assay [3]; 28.7 µM in [4]; 51.5 µM in assay [10]; above 100 µM in [6]. Besides, the TGI in assay [8] and in [9] was above 100 µM throughout.
Consider `O=C(CC1(O)C(=O)Nc2ccccc21)c1ccco1` (stereo not given), for which the TGI in assay [1], in [2], in [4], in assay [10], in [5] and in assay [6] was above 100 µM throughout. In addition, the TGI in assay [7], in assay [8] and in [9] was above 100 µM each time.
Take `O=C(O)/C(Cl)=C(\Cl)C(=O)NC1C2CC3CC(C2)CC1C3` (stereo not given): the TGI in [1], in [2], in assay [3], in assay [4], in assay [10] and in [5] was above 100 µM throughout. Also, the TGI in assay [6], in assay [7] and in [9] was above 100 µM each time.
For the molecule `CC#C/C(=N\OC[C@H]1COCCN1)c1ccc2ncnc(Nc3ccc(OCc4cccc(F)c4)c(Cl)c3)c2c1`, the GI50 was 1.52 µM in assay [1]; 2.07 µM in [2]; 1.73 µM in assay [3]; 1.72 µM in assay [4]; 1.14 µM in assay [5]; 1.69 µM in [6]. The GI50 in assay [7] was 0.183 µM; in assay [8], 0.0335 µM; in assay [9], 1.68 µM. The TGI is 3.16 µM in [1]; 7.7 µM in [2]; 3.85 µM in assay [3]; 3.26 µM in assay [4]; 2.48 µM in assay [5]; 3.42 µM in assay [6]. Also, the total growth inhibition concentration (TGI) is 10.4 µM in assay [7], 1.48 µM in assay [8] and 3.11 µM in [9].
On to `CCCCCCCCCCCCCCCC[N+](C)(CCO)Cc1cnc[nH]1` (stereo not given), for which the GI50 was 0.978 µM in assay [1]; 2.93 µM in assay [2]; 1.18 µM in [4]; 1.57 µM in [10]; 0.922 µM in assay [5]; 0.622 µM in assay [7]. For the same molecule, the concentration for total growth inhibition (TGI) in assay [1] is 56.4 µM; in assay [2], 12.2 µM; in assay [4], 4.01 µM; in assay [10] it was above 100 µM; in assay [5], 3.82 µM; in assay [7] it was 4.47 µM.
In the case of `CN1CCN(c2cc(C(=O)Nc3cc4cc(-c5cnn(C)c5)ccc4cn3)ccn2)CC1`, the GI50 in [1] is 0.151 µM; in assay [2] it was 0.0605 µM; in [3], 0.155 µM; in assay [4], 0.306 µM; in [10] it was 0.0727 µM; in assay [5], 0.16 µM. The GI50 is 0.0376 µM in [6], 0.202 µM in assay [8] and 0.192 µM in assay [9]. Further, the TGI is 1.46 µM in assay [1]; 0.447 µM in [2]; above 39.2 µM in [3]; 13.2 µM in [4]; above 100 µM in [10]; 3.6 µM in assay [5]. In addition, the figures for the TGI in [6], in [8] and in assay [9] were 11.4 µM, 11.4 µM and 0.646 µM, respectively.
As for `C=C1c2[nH]c3ccccc3c2C2C(CC)C1CCN2C` (stereo not given), the TGI was above 100 µM in assay [1]; 70 µM in [2]; above 100 µM in assay [3]; above 100 µM in assay [4]; above 100 µM in assay [5]; above 100 µM in [6]. Also, the TGI in assay [7], in assay [8] and in assay [9] was above 100 µM each time.
With `Cc1[nH]c2ccccc2c1-c1cc(-c2cc(-c3c(C)[nH]c4ccccc34)nc(N)n2)nc(N)n1`, the TGI in [1], in assay [2], in assay [4], in [10], in assay [5] and in assay [6] was above 100 µM throughout. Besides, the TGI in assay [7], in assay [8] and in assay [9] was above 100 µM in each case.
On to `COC(=O)NC1(NC(=O)OC)NC(=O)c2cc(OC)c(OC)c(OC)c2N1`, for which the TGI in assay [1], in assay [2], in assay [3], in assay [4], in [10] and in assay [6] was above 100 µM each time. The TGI in assay [7], in assay [8] and in [9] was above 100 µM throughout.
Regarding `CC1(C)OB(O)OC1(C)C`, the TGI in assay [1], in assay [2], in [3], in assay [4], in [10] and in assay [6] was above 100 µM in each case. Besides, the TGI in assay [7], in assay [8] and in assay [9] was above 100 µM each time.
Take `O=C(/C=C/C=C/c1c(C2CC2)nc2ccccc2c1-c1ccc(F)cc1)c1cccs1`: the GI50 in assay [1] was 1.64 µM; in assay [2], 1.67 µM; in [3], 1.37 µM; in assay [4] it was 1.95 µM; in [5], 1.83 µM; in assay [8], 4.58 µM. The GI50 in [9] is 1.46 µM. The TGI is 14.7 µM in [1]; 3.58 µM in [2]; above 100 µM in assay [3]; 5.97 µM in [4]; 8.6 µM in [5]; 32.9 µM in [8]. For the same molecule, the TGI in [9] is 6.64 µM.

As usually defined, the TGI is the concentration at which net growth stops. Higher therefore signals less potent growth arrest. As usually defined, the GI50 is the concentration that inhibits growth by half.

For the origin of these results see PubChem BioAssay (NCI).
